Values of other authors, collected in patent publication US11406849B2, “Amino alcohol-containing skin cleansing composition for removing keratotic plugs from skin” (KAO CORPORATION, priority 2017, dated 2022).

Solubility in water | Structure (SMILES)
readily dissolved in water | NC(CO)(CO)CO [Component (X1), 2-amino-2-hydroxymethyl-1,3-propanediol]
readily dissolved in water | CC(C)(N)CO [Component (X2), 2-amino-2-methyl-1-propanol]
